Read-outs that look alike come from different tables or passages of the source. Numbered stars: 1 amine (or outer) side, 2 acyl side, 3 side chain; on linkers, the order of the positions; unused ones are H or OH. Bridge positions count the residues as written; N and C are the ends. Square brackets hold non-standard residues; d marks the D form. Peptide text beside a SMILES is read from it. * marks the point of attachment. ξ: configuration not given here. Gly(1-amidinopiperidin-4-yl) = N=C(N)N1CCC([C@H](N)C(=O)O)CC1; Ala(Nα-(CH2)3NH) = C[C@@H](C(=O)[*:2])N(CCCN[*:3])[*:1]; Phe(4-COOH) = N[C@@H](Cc1ccc(C(=O)O)cc1)C(=O)O; Bip = N[C@@H](Cc1ccc(-c2ccccc2)cc1)C(=O)O; Phe(3-Cl) = N[C@@H](Cc1cccc(Cl)c1)C(=O)O; Phe(3-OMe) = COc1cccc(C[C@H](N)C(=O)O)c1; Phe(3-F) = N[C@@H](Cc1cccc(F)c1)C(=O)O; Phe(3-Me) = Cc1cccc(C[C@H](N)C(=O)O)c1; 3Pal = N[C@@H](Cc1cccnc1)C(=O)O; 4Pal = N[C@@H](Cc1ccncc1)C(=O)O; Cha = N[C@@H](CC1CCCCC1)C(=O)O; Cit = NC(=O)NCCC[C@H](N)C(=O)O; Ile(3ξ) = CCC(C)[C@H](N)C(=O)O; Thr(3ξ) = CC(O)[C@H](N)C(=O)O; hLeu = CC(C)CC[C@H](N)C(=O)O; Pip = O=C(O)[C@@H]1CCCCN1; Carboxymethyl = O=C(O)C*; NMeA = CN[C@@H](C)C(=O)O; Orn = NCCC[C@H](N)C(=O)O; Dab = NCC[C@H](N)C(=O)O; Dap = NC[C@H](N)C(=O)O; ξC = NC(CS)C(=O)O

This test concerns the target T1, PE-labeled human PD-L1-Ig binding to Jurkat cell line over-expressing human PD-1 (Jurkat-PD-1) (Homo sapiens, UniProt Q15116).
T1 construct: expressed in transfected cells; host or cells: Jurkat
Briefly: Jurkat-PD-1 Cell Binding High-Content Screening Assay (CBA): Method 1. Conditions: Jurkat-hPD-1 cells, PE-labeled PD-L1-Ig 20 nM final.

Where [1] appears, read: read-out: Jurkat HPDL1 PD1 IC50 (uM) (Method 1).

T1 sequence (Q15116 25-288): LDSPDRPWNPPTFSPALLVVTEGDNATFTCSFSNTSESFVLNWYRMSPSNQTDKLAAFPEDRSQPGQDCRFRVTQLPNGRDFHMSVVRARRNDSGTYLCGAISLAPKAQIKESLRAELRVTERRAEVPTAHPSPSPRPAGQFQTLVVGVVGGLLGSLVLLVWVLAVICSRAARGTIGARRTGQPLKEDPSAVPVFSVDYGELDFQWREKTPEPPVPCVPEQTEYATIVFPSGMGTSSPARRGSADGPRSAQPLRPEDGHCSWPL

One may read the IC50 as the concentration at which inhibition is half-maximal. On to `CCC(C)[C@@H]1NC(=O)[C@H](Cc2ccc(-c3ccccc3)cc2)NC(=O)[C@H](C(C)C)NC(=O)[C@H](Cc2c[nH]c3ccccc23)NC(=O)[C@H](CC(N)=O)NC(=O)[C@H](Cc2ccc(O)cc2)NC(=O)[C@H](CC(N)=O)NC(=O)CSCC(C(=O)NCC(N)=O)NC(=O)[C@H](C(C)O)NC(=O)[C@H](C(C)C)NC(=O)[C@H](CC2CCCCC2)NC(=O)[C@H](CC(N)=O)NC(=O)[C@@H](CC(C)C)NC(=O)[C@H](C)N(C)C1=O` (stereo partly drawn) [Compound 2066] ({CH2CO}-NYNWV[Bip][Ile(3ξ)][NMeA][dL]N[Cha]V[Thr(3ξ)][ξC]G-NH2; thioether N-14), for which the IC50 under setting [1] is 0.35 µM. On the same count and under the same terms, with `CC(C)C[C@@H]1NC(=O)[C@H](CCN)NC(=O)[C@@H](CC(C)C)NC(=O)[C@H](C)N(CCCN)C(=O)[C@H](CCCNC(=N)N)NC(=O)[C@H](Cc2ccc(-c3ccccc3)cc2)NC(=O)[C@H](C(C)C)NC(=O)[C@H](Cc2c[nH]c3ccccc23)NC(=O)[C@H](CC(=O)O)NC(=O)[C@H](Cc2ccc(O)cc2)NC(=O)[C@H](CC(N)=O)NC(=O)CSC[C@@H](C(=O)N[C@@H](C)C(N)=O)NC(=O)[C@H]([C@@H](C)O)NC(=O)[C@H](C(C)C)NC1=O` [Compound 1209] ({CH2CO}-NYDWV[Bip]R[Ala(Nα-(CH2)3NH)][dL][Dab]LVTCA-NH2; thioether N-14) the figure was 0.14 µM. Still for that read-out and setting: with `CCC(C)[C@@H]1NC(=O)[C@H](Cc2ccc(-c3ccccc3)cc2)NC(=O)[C@H](C(C)C)NC(=O)[C@H](Cc2cccc(C)c2)NC(=O)[C@H](CC(=O)O)NC(=O)[C@H](Cc2ccc(OCC(=O)O)cc2)NC(=O)[C@H](C(C)O)NC(=O)CSC[C@@H](C(=O)N[C@@H](CCN)C(N)=O)NC(=O)[C@H](C(C)O)NC(=O)[C@H](C(C)C)NC(=O)[C@H](CC2CCCCC2)NC(=O)[C@H](CCN)NC(=O)[C@@H](CC(C)C)NC(=O)[C@H](C)N(C)C1=O` (stereo partly drawn) [Compound 2116] ({CH2CO}-[Thr(3ξ)]Y(Carboxymethyl)D[Phe(3-Me)]V[Bip][Ile(3ξ)][NMeA][dL][Dab][Cha]V[Thr(3ξ)]C[Dab]-NH2; thioether N-14) the figure was 0.01 µM; with `CCC(C)[C@@H]1NC(=O)[C@H](Cc2ccc(-c3ccccc3)cc2)NC(=O)[C@H](CC(C)C)NC(=O)[C@H](Cc2c[nH]c3ccccc23)NC(=O)[C@H](CC(=O)O)NC(=O)[C@H](Cc2ccc(OCC(=O)O)cc2)NC(=O)[C@H](C(C)O)NC(=O)CSC[C@@H](C(=O)N[C@@H](CC(N)=O)C(=O)O)NC(=O)[C@H](CO)NC(=O)[C@H](C(C)C)NC(=O)[C@H](CC(C)C)NC(=O)[C@H](CCN)NC(=O)[C@@H](CC(C)C)NC(=O)[C@H](C)N(C)C1=O` (stereo partly drawn) [Compound 2220] ({CH2CO}-[Thr(3ξ)]Y(Carboxymethyl)DWL[Bip][Ile(3ξ)][NMeA][dL][Dab]LVSCN-OH; thioether N-14), 0.04 µM; with `CC(C)C[C@@H]1NC(=O)[C@H](CCN)NC(=O)[C@@H](CC(C)C)NC(=O)[C@H](C)N(C)C(=O)[C@H](CCCN)NC(=O)[C@H](Cc2ccc(-c3ccccc3)cc2)NC(=O)[C@H](C(C)C)NC(=O)[C@H](Cc2c[nH]c3ccccc23)NC(=O)[C@H](CC(=O)O)NC(=O)[C@H](Cc2ccc(C(=O)O)cc2)NC(=O)[C@H](CC(N)=O)NC(=O)CSC[C@@H](C(=O)N[C@@H](C)C(N)=O)NC(=O)[C@H]([C@@H](C)O)NC(=O)[C@H](C(C)C)NC1=O` [Compound 1386] ({CH2CO}-N[Phe(4-COOH)]DWV[Bip][Orn][NMeA][dL][Dab]LVTCA-NH2; thioether N-14), 0.05 µM. Same read-out and setting: with `COc1ccc(C[C@H]2NC(=O)[C@H](C)N(C)C(=O)[C@H](CCCNC(=N)N)NC(=O)[C@H](Cc3ccc(-c4ccccc4)cc3)NC(=O)[C@H](C(C)C)NC(=O)[C@H](Cc3c[nH]c4ccccc34)NC(=O)[C@H](CC(=O)O)NC(=O)[C@H](Cc3ccc(O)cc3)NC(=O)[C@H](Cc3ccccc3)NC(=O)CSC[C@@H](C(=O)N[C@@H](C)C(N)=O)NC(=O)[C@H]([C@@H](C)O)NC(=O)[C@H](C(C)C)NC(=O)[C@H](CC(C)C)NC(=O)[C@H](CCCNC(=N)N)NC2=O)cc1` [Compound 1108] ({CH2CO}-FYDWV[Bip]R[NMeA][dY](Me)RLVTCA-NH2; thioether N-14) the figure was 0.53 µM; with `Cc1cccc(C[C@@H]2NC(=O)[C@H](CC(=O)O)NC(=O)[C@H](Cc3ccc(C(=O)O)cc3)NC(=O)[C@H](Cc3ccncc3)NC(=O)CSC[C@@H](C(=O)N[C@@H](C)C(N)=O)NC(=O)[C@H]([C@@H](C)O)NC(=O)[C@H](C(C)C)NC(=O)[C@H](CC(C)C)NC(=O)[C@H](CCN)NC(=O)[C@@H](CC(C)C)NC(=O)[C@H](C)N(C)C(=O)[C@H](C(C)C)NC(=O)[C@H](Cc3ccc(-c4ccccc4)cc3)NC(=O)[C@H](C(C)C)NC2=O)c1` [Compound 1420] ({CH2CO}-[4Pal][Phe(4-COOH)]D[Phe(3-Me)]V[Bip]V[NMeA][dL][Dab]LVTCA-NH2; thioether N-14), 0.01 µM. In the case of `CC(C)C[C@@H]1NC(=O)[C@H](CCCNC(=N)N)NC(=O)[C@@H](CC(C)C)NC(=O)[C@H](C)N(C)C(=O)[C@H](CCCNC(=N)N)NC(=O)[C@H](Cc2ccc(-c3ccccc3)cc2)NC(=O)[C@H](C(C)C)NC(=O)[C@H](Cc2c[nH]c3ccccc23)NC(=O)[C@H](CC(=O)O)NC(=O)[C@H](Cc2ccc(OCC(=O)O)cc2)NC(=O)[C@H](Cc2cccnc2)NC(=O)CSC[C@@H](C(=O)N[C@@H](C)C(N)=O)NC(=O)[C@H]([C@@H](C)O)NC(=O)[C@H](C(C)C)NC1=O` [Compound 1110] ({CH2CO}-[3Pal]Y(Carboxymethyl)DWV[Bip]R[NMeA][dL]RLVTCA-NH2; thioether N-14), the IC50 under setting [1] turned out to be 0.04 µM. Regarding `CC(C)C[C@@H]1NC(=O)[C@H](CCN)NC(=O)[C@@H](CC(C)C)NC(=O)[C@H](C)N(C)C(=O)[C@H](CCCNC(=N)N)NC(=O)[C@H](Cc2ccc(-c3ccccc3)cc2)NC(=O)[C@H](C(C)C)NC(=O)[C@H](Cc2c[nH]c3ccccc23)NC(=O)[C@H](CC(=O)O)NC(=O)[C@H](Cc2ccc(O)cc2)NC(=O)[C@H](CC(N)=O)NC(=O)CSC[C@@H](C(=O)N[C@@H](C)C(N)=O)NC(=O)[C@H](CO)NC(=O)[C@H](C(C)C)NC1=O` [Compound 1054] ({CH2CO}-NYDWV[Bip]R[NMeA][dL][Dab]LVSCA-NH2; thioether N-14), under “Jurkat HPDL1 PD1 IC50 (uM) (Method 1)”, the IC50 amounted to 0.09 µM. `CCC(C)[C@@H]1NC(=O)[C@H](Cc2ccc(-c3ccccc3)cc2)NC(=O)[C@H](C(C)C)NC(=O)[C@H](Cc2c[nH]c3ccccc23)NC(=O)[C@H](CC(=O)O)NC(=O)[C@H](Cc2ccc(O)cc2)NC(=O)[C@H](C2CCN(C(=N)N)CC2)NC(=O)CSC[C@@H](C(=O)N[C@@H](C)C(N)=O)NC(=O)[C@H](C(C)O)NC(=O)[C@H](C(C)C)NC(=O)[C@H](CC2CCCCC2)NC(=O)[C@H](CCN)NC(=O)[C@@H](CC(C)C)NC(=O)[C@H](C)N(C)C1=O` (stereo partly drawn) [Compound 2054] ({CH2CO}-[Gly(1-amidinopiperidin-4-yl)]YDWV[Bip][Ile(3ξ)][NMeA][dL][Dab][Cha]V[Thr(3ξ)]CA-NH2; thioether N-14): the IC50 under setting [1] turned out to be 0.02 µM.

For the molecule `CC(C)C[C@@H]1NC(=O)[C@H](CCN)NC(=O)[C@@H](CC(C)C)NC(=O)[C@H](C)N(C)C(=O)[C@H](CCCNC(N)=O)NC(=O)[C@H](Cc2ccc(-c3ccccc3)cc2)NC(=O)[C@H](C(C)C)NC(=O)[C@H](Cc2c[nH]c3ccccc23)NC(=O)[C@H](CC(=O)O)NC(=O)[C@H](Cc2cccc(F)c2)NC(=O)[C@H](CC(N)=O)NC(=O)CSC[C@@H](C(=O)N[C@@H](C)C(N)=O)NC(=O)[C@H]([C@@H](C)O)NC(=O)[C@H](C(C)C)NC1=O` [Compound 1315] ({CH2CO}-N[Phe(3-F)]DWV[Bip][Cit][NMeA][dL][Dab]LVTCA-NH2; thioether N-14), the concentration for half-maximal inhibition (IC50) under setting [1] worked out at 0.06 µM. The same measure, in the same setting: with `CC(C)C[C@@H]1NC(=O)[C@H](CCCNC(=N)N)NC(=O)[C@H](Cc2cccc(Cl)c2)NC(=O)[C@H](C)N(C)C(=O)[C@H](CCCNC(=N)N)NC(=O)[C@H](Cc2ccc(-c3ccccc3)cc2)NC(=O)[C@H](C(C)C)NC(=O)[C@H](Cc2c[nH]c3ccccc23)NC(=O)[C@H](CC(=O)O)NC(=O)[C@H](Cc2ccc(O)cc2)NC(=O)[C@H](Cc2ccccc2)NC(=O)CSC[C@@H](C(=O)NCC(N)=O)NC(=O)[C@H](CO)NC(=O)[C@H](C(C)C)NC1=O` [Compound 1014] ({CH2CO}-FYDWV[Bip]R[NMeA][Phe(3-Cl)]RLVSCG-NH2; thioether N-14) the figure was 0.2 µM.

`COc1cccc(C[C@@H]2NC(=O)[C@H](CC(N)=O)NC(=O)CSC[C@@H](C(=O)N[C@@H](C)C(N)=O)NC(=O)[C@H]([C@@H](C)O)NC(=O)[C@H](C(C)C)NC(=O)[C@H](CC(C)C)NC(=O)[C@H](CCN)NC(=O)[C@@H](CC(C)C)NC(=O)[C@H](C)N(C)C(=O)[C@H](CCCNC(=N)N)NC(=O)[C@H](Cc3ccc(-c4ccccc4)cc3)NC(=O)[C@H](C(C)C)NC(=O)[C@H](Cc3c[nH]c4ccccc34)NC(=O)[C@H](CC(=O)O)NC2=O)c1` [Compound 1307] ({CH2CO}-N[Phe(3-OMe)]DWV[Bip]R[NMeA][dL][Dab]LVTCA-NH2; thioether N-14): the IC50 under setting [1] worked out at 0.1 µM. With `Cc1cccc(C[C@@H]2NC(=O)[C@H](CC(=O)O)NC(=O)[C@H](Cc3ccc(OCC(=O)O)cc3)NC(=O)[C@H](CN)NC(=O)CSC[C@@H](C(N)=O)NC(=O)[C@H](CCCN)NC(=O)[C@H](C(C)C)NC(=O)[C@H](CC3CCCCC3)NC(=O)[C@H](CCN)NC(=O)[C@@H](CC(C)C)NC(=O)[C@@H]3CCCCN3C(=O)[C@H](Cc3ccc(OCC(=O)O)cc3)NC(=O)[C@H](Cc3ccc(-c4ccccc4)cc3)NC(=O)[C@H](Cc3ccc(OCC(=O)O)cc3)NC2=O)c1` [Compound 1890] ({CH2CO}-[Dap]Y(Carboxymethyl)D[Phe(3-Me)]Y(Carboxymethyl)[Bip]Y(Carboxymethyl)[Pip][dL][Dab][Cha]V[Orn]C-NH2; thioether N-14), the IC50 under setting [1] is 0.15 µM. Still for that read-out and setting: the figure for `CC(C)CC[C@@H]1NC(=O)[C@H](CCCNC(=N)N)NC(=O)[C@@H](CC(C)C)NC(=O)[C@H](C)N(C)C(=O)[C@H](CCCNC(=N)N)NC(=O)[C@H](Cc2ccc(-c3ccccc3)cc2)NC(=O)[C@H](C(C)C)NC(=O)[C@H](Cc2c[nH]c3ccccc23)NC(=O)[C@H](CC(=O)O)NC(=O)[C@H](Cc2ccc(O)cc2)NC(=O)[C@H](Cc2ccccc2)NC(=O)CSC[C@@H](C(=O)N[C@@H](C)C(N)=O)NC(=O)[C@H]([C@@H](C)O)NC(=O)[C@H](C(C)C)NC1=O` [Compound 1116] ({CH2CO}-FYDWV[Bip]R[NMeA][dL]R[hLeu]VTCA-NH2; thioether N-14) is 0.06 µM.

Source of the values: patent US20240409585A1, “MACROCYCLIC IMMUNOMODULATORS” (priority 2021, published 2024).
